Here are results for nine molecules from patent US20160122320A1, “USEFUL COMBINATIONS OF MONOBACTAM ANTIBIOTICS WITH BETA-LACTAMASE INHIBITORS” (Basilea Pharmaceutica AG, priority 2005, published 2016).

What all share (assay): MIC, NCCLS broth microdilution
Type in all cases: cell-based

The test system of assay [1] is Pseudomonas aeruginosa MK1184. The note with it: for MIC of antibiotic at fixed inhibitor concentration (4 mg/L): MIC of antibiotic compound 1 with the labelled bridged monobactam of formula II and clavulanate, 4 mg/L each; for MIC of antibiotic: antibiotic alone, no inhibitor.
In assay [2] the test system is Klebsiella pneumoniae CF104. The note with it: for MIC of antibiotic at fixed inhibitor concentration (4 mg/L): MIC of antibiotic compound 1 with the labelled bridged monobactam of formula II and clavulanate, 4 mg/L each; for MIC of antibiotic: antibiotic alone, no inhibitor.
For assay [3], the system named is Pseudomonas aeruginosa 1973E. The settings on record: for MIC of antibiotic at fixed inhibitor concentration (4 mg/L): MIC of antibiotic compound 1 with the labelled bridged monobactam of formula II and clavulanate, 4 mg/L each; for MIC of antibiotic: antibiotic alone, no inhibitor. The protocol: Antimicrobial activity of the compounds and of their combinations was determined against a selection of organisms according to the standard procedures described by the National Committee for Clinical Laboratory Standards (National Committee for Clinical Laboratory. Standards (2000). Methods for Dilution Antimicrobial Susceptibility Tests for Bacteria That Grow Aerobically-Fifth Edition: Approved Standard M7-A5. NCCLS, Wayne, Pa., USA).
In all cases the final concentration of DMSO incubated with the bacteria is less than or equal to 1%. […] Plates were incubated overnight at an appropriate temperature (30° C. or 37° C.) and optical densities assessed by eye. The MIC value is defined as the lowest compound concentration completely inhibiting visible growth of the test organism. When combinations between compounds of formula I with compounds of formula II and are evaluated the compounds of formula I are tested in dilution series as described above while the compounds of formula II and III-XIII were present in all wells at a constant concentration of 4 μg/mL each.

Assay [4] concerns Stenotrophomonas malthophilia 1AC736. The settings on record: for MIC of antibiotic at fixed inhibitor concentration (4 mg/L): Stenotrophomonas malthophilia 1AC736, MIC of antibiotic compound 1 with the labelled bridged monobactam of formula II and clavulanate, 4 mg/L each; for MIC of antibiotic / MIC of antibiotic at fixed inhibitor concentration of 4 mg/L: Stenotrophomonas maltophilia 1AC736; for MIC of antibiotic: antibiotic alone, no inhibitor.

A further assay has as its system Acinetobacter sp. J2. The settings on record: for MIC of antibiotic at fixed inhibitor concentration (4 mg/L): Acinetobacter sp. J2, MIC of antibiotic compound 1 with the labelled bridged monobactam of formula II and clavulanate, 4 mg/L each; for MIC of antibiotic / MIC of antibiotic at fixed inhibitor concentration of 4 mg/L: Acinetobacter baumannii J2; for MIC of antibiotic: antibiotic alone, no inhibitor.

The subject of a further assay is Enterobacter cloacae P99. The settings on record: for MIC of antibiotic at fixed inhibitor concentration (4 mg/L): MIC of antibiotic compound 1 with the labelled bridged monobactam of formula II and clavulanate, 4 mg/L each; for MIC of antibiotic: antibiotic alone, no inhibitor.
The test system of another assay is Serratia marcescens S6. The settings on record: for MIC of antibiotic at fixed inhibitor concentration (4 mg/L): MIC of antibiotic compound 1 with the labelled bridged monobactam of formula II and clavulanate, 4 mg/L each; for MIC of antibiotic: antibiotic alone, no inhibitor.

Counter-ions that a name gives are not always drawn.

As to `Nc1ccc(NC(=O)N2CC[C@@H]3[C@H]2C(=O)N3S(=O)(=O)[O-])cc1.[Na+]` [Compound 327, Sodium(1S,5R)-2-[N-(4-aminophenyl)carbamoyl]-7-oxo-2,6-diazabicyclo[3.2.0]heptane-6-sulfonate], the “MIC of antibiotic at fixed inhibitor concentration (4 mg/L)” value in assay [1] was greater than 32 µg/mL; in assay [2] it was 2 µg/mL; in assay [3], 2 µg/mL; in assay [4], 0.125 µg/mL; with Acinetobacter sp. J2, 2 µg/mL; in the assay with Enterobacter cloacae P99, 32 µg/mL. Besides, in the assay on Serratia marcescens S6, the “MIC of antibiotic at fixed inhibitor concentration (4 mg/L)” value was 0.25 µg/mL.

For the molecule `O=C(NC1CC1)c1ccc[n+](CC(=O)N2CC[C@@H]3[C@H]2C(=O)N3S(=O)(=O)[O-])c1` [Compound 109, (1S,5R)-2-{2-[3-(N-cyclopropylcarbamoyl)pyridinium]acetyl}-7-oxo-2,6-diazabicyclo[3.2.0]heptane-6-sulfonate, inner salt], the “MIC of antibiotic at fixed inhibitor concentration (4 mg/L)” value in assay [1] is 16 µg/mL; in assay [2] it was 0.5 µg/mL; in assay [3] it was 4 µg/mL; in assay [4] it was 0.125 µg/mL; in the assay on Acinetobacter sp. J2 it was 4 µg/mL; in the assay with Enterobacter cloacae P99, 32 µg/mL. The “MIC of antibiotic at fixed inhibitor concentration (4 mg/L)” value with Serratia marcescens S6 amounted to 0.125 µg/mL.

Take `O=C(C[n+]1ccc2c(c1)CCCC2)N1CC[C@@H]2[C@H]1C(=O)N2S(=O)(=O)[O-]` [Compound 106, (1S,5R)-7-oxo-2-(2-(2-5,6,7,8-tetrahydroisoquinolinium)acetyl)-2,6-diazabicyclo[3.2.0]heptane-6-sulfonate, inner salt]: the “MIC of antibiotic at fixed inhibitor concentration (4 mg/L)” value was 32 µg/mL in assay [1]; 0.25 µg/mL in assay [2]; 4 µg/mL in assay [3]; 0.125 µg/mL in assay [4]; greater than 32 µg/mL in the assay on Acinetobacter sp. J2; greater than 32 µg/mL in the assay on Enterobacter cloacae P99. In addition, in the assay with Serratia marcescens S6, the “MIC of antibiotic at fixed inhibitor concentration (4 mg/L)” value was 0.25 µg/mL.

`NC(=O)c1cc[n+](CC(=O)N2CC[C@@H]3[C@H]2C(=O)N3S(=O)(=O)[O-])cc1C(N)=O` [Compound 110, (1S,5R)-2-[2-(3,4-dicarbamoylpyridinium)acetyl]-7-oxo-2,6-diazabicyclo[3.2.0]heptane-6-sulfonate, inner salt]: the “MIC of antibiotic at fixed inhibitor concentration (4 mg/L)” value was 32 µg/mL in assay [1]; 0.125 µg/mL in assay [2]; 4 µg/mL in assay [3]; 0.125 µg/mL in assay [4]; 2 µg/mL in the assay with Acinetobacter sp. J2; greater than 32 µg/mL in the assay on Enterobacter cloacae P99. Further, in the assay on Serratia marcescens S6, the “MIC of antibiotic at fixed inhibitor concentration (4 mg/L)” value came to 0.25 µg/mL.

On to `COC(=O)c1ccc[n+](CC(=O)N2CC[C@@H]3[C@H]2C(=O)N3S(=O)(=O)[O-])c1C` [Compound 115, (1S,5R)-2-{2-[3-(methoxycarbonyl)-2-methylpyridinium]acetyl}-7-oxo-2,6-diazabicyclo[3.2.0]heptane-6-sulfonate, inner salt], for which the “MIC of antibiotic at fixed inhibitor concentration (4 mg/L)” value in assay [1] is 16 µg/mL; in assay [2], 0.125 µg/mL; in assay [3], 4 µg/mL; in assay [4], 0.125 µg/mL; with Acinetobacter sp. J2, greater than 32 µg/mL; in the assay on Enterobacter cloacae P99, 32 µg/mL. For the same molecule, the “MIC of antibiotic at fixed inhibitor concentration (4 mg/L)” value in the assay with Serratia marcescens S6 was determined as 0.25 µg/mL.

`C[C@H]1[C@H](NC(=O)/C(=N\OCc2cc(=O)c(O)cn2O)c2csc(N)n2)C(=O)N1OCC(=O)O` [Compound 22, 2-((3S,4S)-3-{(2Z)-2-(2-amino(1,3-thiazol-4-yl))-3-[(1,5-dihydroxy-4-oxo(2-hydropyridyl))methoxy]-3-azaprop-2-enoylamino}-4-methyl-2-oxoazetidinyloxy)acetic acid]: the MIC of antibiotic is 8 µg/mL in assay [1]; greater than 32 µg/mL in assay [2]; 4 µg/mL in assay [3]; 0.5 µg/mL in assay [4]; greater than 32 µg/mL in the assay on Acinetobacter sp. J2; greater than 32 µg/mL with Enterobacter cloacae P99. For the same molecule, the MIC of antibiotic with Serratia marcescens S6 worked out at 0.13 µg/mL. Also, the “MIC of antibiotic at fixed inhibitor concentration of 4 mg/L” value in assay [1] (with 102 and clavulanate) amounted to 4 µg/mL; in assay [1] (with 324 and clavulanate), 4 µg/mL; in assay [1] (with 324 and sulbactam) it was 4 µg/mL; in assay [2] (with 102 and clavulanate), 0.25 µg/mL; in assay [2] (with 324 and clavulanate), 0.25 µg/mL; in assay [2] (with 324 and sulbactam) it was 4 µg/mL. Further, the “MIC of antibiotic at fixed inhibitor concentration of 4 mg/L” value in assay [3] (with 102 and clavulanate) stood at 4 µg/mL; in assay [3] (with 324 and clavulanate) it was 4 µg/mL; in assay [3] (with 324 and sulbactam), 4 µg/mL; in assay [4] (with 102 and clavulanate), 1 µg/mL; in assay [4] (with 324 and clavulanate), 1 µg/mL; in assay [4] (with 324 and sulbactam), 1 µg/mL. In addition, the “MIC of antibiotic at fixed inhibitor concentration of 4 mg/L” value amounted to 4 µg/mL in the assay with Acinetobacter sp. J2 (with 102 and clavulanate); 8 µg/mL with Acinetobacter sp. J2 (with 324 and clavulanate); 2 µg/mL in the assay with Acinetobacter sp. J2 (with 324 and sulbactam); 8 µg/mL in the assay with Enterobacter cloacae P99 (with 102 and clavulanate); 4 µg/mL with Enterobacter cloacae P99 (with 324 and clavulanate); 4 µg/mL with Enterobacter cloacae P99 (with 324 and sulbactam). For the same molecule, the “MIC of antibiotic at fixed inhibitor concentration of 4 mg/L” value with Serratia marcescens S6 (with 102 and clavulanate) is 0.25 µg/mL; with Serratia marcescens S6 (with 324 and clavulanate), 0.13 µg/mL; in the assay with Serratia marcescens S6 (with 324 and sulbactam), 0.13 µg/mL.

Take `CCOC(=O)Cc1ccc[n+](CC(=O)N2CC[C@@H]3[C@H]2C(=O)N3S(=O)(=O)[O-])c1` [Compound 119, (1S,5R)-2-(2-{3-[(ethoxycarbonyl)methyl]pyridinium}acetyl)-7-oxo-2,6-diazabicyclo[3.2.0]heptane-6-sulfonate, inner salt]: the “MIC of antibiotic at fixed inhibitor concentration (4 mg/L)” value in assay [1] was 32 µg/mL; in assay [2], 0.125 µg/mL; in assay [3], 4 µg/mL; in assay [4], 0.125 µg/mL; in the assay with Acinetobacter sp. J2, greater than 32 µg/mL; in the assay on Enterobacter cloacae P99, greater than 32 µg/mL. Also, the “MIC of antibiotic at fixed inhibitor concentration (4 mg/L)” value with Serratia marcescens S6 was found to be 0.25 µg/mL.

As for `CC1C(NC(=O)C(=NOCc2cc(=O)c(O)cn2O)c2csc(NC=O)n2)C(=O)N1S(=O)(=O)O` (stereo not shown) [Compound 28], the MIC of antibiotic in assay [1] was greater than 32 µg/mL; in assay [2], greater than 32 µg/mL; in assay [3], greater than 32 µg/mL; in assay [4] it was 8 µg/mL; with Acinetobacter sp. J2 it was greater than 32 µg/mL; in the assay with Enterobacter cloacae P99 it was greater than 32 µg/mL. For the same molecule, the MIC of antibiotic with Serratia marcescens S6 came to 8 µg/mL. Besides, the “MIC of antibiotic at fixed inhibitor concentration of 4 mg/L” value is 32 µg/mL in assay [1] (with 102 and clavulanate); 0.5 µg/mL in assay [2] (with 102 and clavulanate); 16 µg/mL in assay [3] (with 102 and clavulanate); 1 µg/mL in assay [4] (with 102 and clavulanate); greater than 32 µg/mL in the assay on Acinetobacter sp. J2 (with 102 and clavulanate); greater than 32 µg/mL in the assay with Enterobacter cloacae P99 (with 102 and clavulanate). In the assay on Serratia marcescens S6 (with 102 and clavulanate), the “MIC of antibiotic at fixed inhibitor concentration of 4 mg/L” value is 1 µg/mL.

With `CN(C)n1ccc(SCC(=O)N2CC[C@@H]3[C@H]2C(=O)N3S(=O)(=O)O)nc1=O` [Compound 203, (1S,5R)-2-{2-[1-(dimethylamino)-2-oxohydropyrimidin-4-ylthio]acetyl}-7-oxo-2,6-diazabicyclo[3.2.0]heptane-6-sulfonic acid], the “MIC of antibiotic at fixed inhibitor concentration (4 mg/L)” value in assay [1] is 32 µg/mL; in assay [2], 1 µg/mL; in assay [3], 4 µg/mL; in assay [4] it was 8 µg/mL; in the assay on Acinetobacter sp. J2, 2 µg/mL; in the assay on Enterobacter cloacae P99, 32 µg/mL. In addition, in the assay on Serratia marcescens S6, the “MIC of antibiotic at fixed inhibitor concentration (4 mg/L)” value was determined as 0.25 µg/mL.
